Assay results published in article PMC3047451 (Journal of medicinal chemistry, 2011).
Entries after “also recorded” stand apart in the source; their conditions may differ. Like-named read-outs stand apart in the source and are kept apart here.

Key:
μ-opioid receptor [1] = target: T1, μ-opioid receptor (Homo sapiens, UniProt P35372); test: biochemical
δ-opioid receptor = δ-opioid receptor (Homo sapiens, UniProt P41143); test: biochemical; type: binding
[2] = target: T2, cloned human μ-opioid receptor (Homo sapiens, UniProt P35372); details: for fold more potent than naloxone as μ-antagonist: [35S]GTP-γ-S functional binding assay; for μ-antagonist potency compared with naloxone or naltrexone (in words): [35S]GTP-γ-S assay; for Ke: shift of DAMGO dose-response curve by test agent, hMOR-CHO membranes, ± SD
κ-opioid receptor = κ-opioid receptor (Homo sapiens, UniProt P41145); test: biochemical; type: binding
[3] = target: T2, cloned human μ-opioid receptor; test: biochemical
[4] = target: T2, cloned human μ-opioid receptor; details: full inverse agonist curve; cited from earlier work
μ-opioid receptor [5] = target: T1, μ-opioid receptor; details: for Ki: read-out: Ki, μ
[6] = target: T2, cloned human μ-opioid receptor; details: 10 μM, non-dependent hMOR cells
[7] = read-out: Ki, δ, 125I-IOXY, hDOR-CHO, n = 3 (± SD)

T1 sequence (P35372 whole entry): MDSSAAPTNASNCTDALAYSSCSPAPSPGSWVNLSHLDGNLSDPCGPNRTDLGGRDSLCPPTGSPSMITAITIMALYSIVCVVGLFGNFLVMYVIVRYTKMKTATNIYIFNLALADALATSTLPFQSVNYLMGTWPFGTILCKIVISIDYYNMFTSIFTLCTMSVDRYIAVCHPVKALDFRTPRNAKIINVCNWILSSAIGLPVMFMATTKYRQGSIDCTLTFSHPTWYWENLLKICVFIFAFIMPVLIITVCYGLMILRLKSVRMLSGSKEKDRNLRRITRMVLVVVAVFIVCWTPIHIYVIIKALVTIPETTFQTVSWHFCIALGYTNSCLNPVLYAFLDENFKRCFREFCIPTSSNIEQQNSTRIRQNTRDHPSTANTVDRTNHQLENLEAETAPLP
T2 sequence (P35372 whole entry): as above
Sequence of κ-opioid receptor (P41145 whole entry): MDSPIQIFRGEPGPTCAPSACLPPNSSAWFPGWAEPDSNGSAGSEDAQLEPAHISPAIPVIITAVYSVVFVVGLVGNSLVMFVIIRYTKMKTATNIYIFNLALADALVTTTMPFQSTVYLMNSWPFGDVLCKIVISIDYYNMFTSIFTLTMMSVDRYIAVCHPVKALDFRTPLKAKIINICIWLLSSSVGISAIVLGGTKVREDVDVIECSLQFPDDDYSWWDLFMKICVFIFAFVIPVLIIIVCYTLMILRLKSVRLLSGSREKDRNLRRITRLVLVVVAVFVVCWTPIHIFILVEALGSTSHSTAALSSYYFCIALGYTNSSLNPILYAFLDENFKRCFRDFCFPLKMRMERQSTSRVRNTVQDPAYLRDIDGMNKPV
Sequence of δ-opioid receptor (P41143 whole entry): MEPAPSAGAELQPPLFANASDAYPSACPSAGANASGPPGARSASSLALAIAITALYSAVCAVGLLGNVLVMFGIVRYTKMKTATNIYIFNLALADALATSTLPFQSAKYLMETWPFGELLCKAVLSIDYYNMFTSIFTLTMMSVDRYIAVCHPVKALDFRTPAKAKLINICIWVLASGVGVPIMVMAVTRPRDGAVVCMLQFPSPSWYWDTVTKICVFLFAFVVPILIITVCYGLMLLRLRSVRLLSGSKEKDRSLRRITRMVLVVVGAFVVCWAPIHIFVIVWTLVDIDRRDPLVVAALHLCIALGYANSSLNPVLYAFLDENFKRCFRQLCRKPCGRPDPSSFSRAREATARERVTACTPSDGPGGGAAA

Oc1cccc([C@@]23CCC[C@@H](C2)N(CC=Cc2ccccc2)CC3)c1 [(+)−6, 3-((1S,5R)-2-Cinnamyl-2-azabicyclo[3.3.1]nonan-5-yl)phenol]
Ki (μ-opioid receptor [1]): 2 ± 0.13 nM | Ki (δ-opioid receptor): 138 ± 5 nM | fold more potent than naloxone as μ-antagonist [2]: 4 fold | Ki (κ-opioid receptor): 125 ± 3 nM | Kb [3]: 0.58 ± 0.07 nM

Oc1cccc([C@@]23CCC[C@@H](C2)N(C/C=C\c2ccccc2)CC3)c1 [(+)−9, 3-((1S,5R)-2-((Z)-3-phenylallyl)-2-azabicyclo[3.3.1]nonan-5-yl)phenol]
Ki (μ-opioid receptor [1]): 26 ± 2 nM | Ki (δ-opioid receptor): 454 ± 25 nM | μ-antagonist potency compared with naloxone or naltrexone (in words) [2]: about as potent as naloxone | inverse agonist activity at non-dependent μ-opioid receptors [4]: inverse agonist | Ki (κ-opioid receptor): 123 ± 4 nM | Kb [3]: 3.1 ± 0.7 nM

Oc1cccc([C@]23CCC[C@H](C2)N(C[C@H]2C[C@@H]2c2ccccc2)CC3)c1 [(+)−29, 3-((1R,5S)-2-(((1’S,2’S)-2-Phenylcyclopropyl)methyl)-2-azabicyclo[3.3.1]nonan-5-yl)phenol]
Ki (δ-opioid receptor; [7]): 165 ± 7 nM | Ke [2]: 0.17 ± 0.02 nM | Ki (μ-opioid receptor [5]): 3 ± 0.26 nM | Ki (κ-opioid receptor; read-out: Ki, κ): 72 ± 4 nM

Oc1cccc([C@@]23CCC[C@@H](C2)N(C[C@H]2C[C@@H]2c2ccccc2)CC3)c1 [(+)−30, 3-((1S,5R)-2-(((1’S,2’S)-2-Phenylcyclopropyl)methyl)-2-azabicyclo[3.3.1]nonan-5-yl)phenol]
Ki (δ-opioid receptor; [7]): 183 ± 7 nM | μ-antagonist potency compared with naloxone or naltrexone (in words) [2]: equipotent with naloxone; also recorded: about as potent as naloxone | Ke [2]: 2.2 ± 0.4 nM | Ki (μ-opioid receptor [5]): 16 ± 1 nM | Ki (κ-opioid receptor; read-out: Ki, κ): 323 ± 15 nM

Oc1cccc([C@]23CCC[C@H](C2)N(C[C@H]2C[C@H]2c2ccccc2)CC3)c1 [(+)−31, 3-((1R,5S)-2-(((1’S,2’R)-2-Phenylcyclopropyl)methyl)-2-azabicyclo[3.3.1]nonan-5-yl)phenol]
Ki (δ-opioid receptor; [7]): 1980 ± 54 nM | Ke [2]: 33 ± 7 nM | fold difference in μ Ki between the cis stereoisomers (μ-opioid receptor [5]): ~42 fold | Ki (μ-opioid receptor [5]): 459 ± 14 nM | Ki (κ-opioid receptor; read-out: Ki, κ): 475 ± 33 nM

Oc1cccc([C@@]23CCC[C@@H](C2)N(C[C@H]2C[C@H]2c2ccccc2)CC3)c1 [(+)−32, 3-((1S,5R)-2-(((1’S,2’R)-2-Phenylcyclopropyl)methyl)-2-azabicyclo[3.3.1]nonan-5-yl)phenol]
Ki (δ-opioid receptor; [7]): 547 ± 23 nM | Ke [2]: 18 ± 6 nM | Ki (μ-opioid receptor [5]): 76 ± 0.3 nM | Ki (κ-opioid receptor; read-out: Ki, κ): 174 ± 12 nM

Oc1cccc([C@]23CCC[C@H](C2)N(CC=Cc2ccccc2)CC3)c1 [(−)−6, 3-((1R,5S)-2-Cinnamyl-2-azabicyclo[3.3.1]nonan-5-yl)phenol]
Ki (μ-opioid receptor [1]): 6 ± 0.39 nM | Ki (δ-opioid receptor): 152 ± 5 nM | μ-antagonist potency compared with naloxone or naltrexone (in words) [2]: four fold less active as opioid antagonists | inverse agonist activity (effect on [35S]GTP-γ-S binding) [6]: little or no activity as an inverse agonist; also recorded: did not act as inverse agonists | Ki (κ-opioid receptor): 225 ± 7 nM | Kb [3]: 6.6 ± 0.7 nM

Oc1cccc([C@]23CCC[C@H](C2)N(C/C=C\c2ccccc2)CC3)c1 [(−)−9, 3-((1R,5S)-2-((Z)-3-phenylallyl)-2-azabicyclo[3.3.1]nonan-5-yl)phenol]
Ki (μ-opioid receptor [1]): 14 ± 0.7 nM | Ki (δ-opioid receptor): 359 ± 18 nM | Ki (κ-opioid receptor): 367 ± 18 nM | Kb [3]: 7.7 ± 1.6 nM

Oc1cccc([C@@]23CCC[C@@H](C2)N(C[C@@H]2C[C@H]2c2ccccc2)CC3)c1 [(−)−29, 3-((1S,5R)-2-(((1’R,2’R)-2-Phenylcyclopropyl)methyl)-2-azabicyclo[3.3.1]nonan-5-yl)phenol]
Ki (δ-opioid receptor; [7]): 800 ± 29 nM | Ke [2]: 9.4 ± 1.5 nM | Ki (μ-opioid receptor [5]): 47 ± 3 nM | Ki (κ-opioid receptor; read-out: Ki, κ): 390 ± 16 nM

Oc1cccc([C@]23CCC[C@H](C2)N(C[C@@H]2C[C@H]2c2ccccc2)CC3)c1 [(−)−30, 3-((1R,5S)-2-(((1’R,2’R)-2-Phenylcyclopropyl)methyl)-2-azabicyclo[3.3.1]nonan-5-yl)phenol]
Ki (δ-opioid receptor; [7]): 200 ± 10 nM | μ-antagonist potency compared with naloxone or naltrexone (in words) [2]: about equipotent with naltrexone | fold more potent than naloxone as μ-antagonist [2]: 7 fold | Ke [2]: 0.31 ± 0.06 nM | Ki (μ-opioid receptor [5]): 4 ± 0.27 nM | Ki (κ-opioid receptor; read-out: Ki, κ): 210 ± 13 nM

Oc1cccc([C@@]23CCC[C@@H](C2)N(C[C@@H]2C[C@@H]2c2ccccc2)CC3)c1 [(−)−31, 3-((1S,5R)-2-(((1’R,2’S)-2-Phenylcyclopropyl)methyl)-2-azabicyclo[3.3.1]nonan-5-yl)phenol]
Ki (δ-opioid receptor; [7]): 610 ± 25 nM | Ke [2]: 8.6 ± 1.9 nM | Ki (μ-opioid receptor [5]): 265 ± 17 nM | Ki (κ-opioid receptor; read-out: Ki, κ): 153 ± 7 nM

Oc1cccc([C@]23CCC[C@H](C2)N(C[C@@H]2C[C@@H]2c2ccccc2)CC3)c1 [(−)−32, 3-((1R,5S)-2-(((1’R,2’S)-2-Phenylcyclopropyl)methyl)-2-azabicyclo[3.3.1]nonan-5-yl)phenol]
Ki (δ-opioid receptor; [7]): 196 ± 6 nM | μ-antagonist potency compared with naloxone or naltrexone (in words) [2]: four fold less active as opioid antagonists | Ke [2]: 8.2 ± 1.8 nM | inverse agonist activity (effect on [35S]GTP-γ-S binding) [6]: did not act as inverse agonists | Ki (μ-opioid receptor [5]): 11 ± 0.9 nM | Ki (κ-opioid receptor; read-out: Ki, κ): 322 ± 22 nM
